Reference: publication PMC9822434, “Estradiol-Based Salicylaldehyde (Thio)Semicarbazones and Their Copper Complexes with Anticancer, Antibacterial and Antioxidant Activities” (Molecules, 2022)
In brackets after ≈: the same amount, converted by molar mass. Where two headings read alike, the source gives them in different places.

Tests used:
[1] = system: A549, MCF-7, MCF-7 KCR and DU-145 cells; assay: γH2AX immunostaining (DNA double-strand breaks); assay type: cell-based, human; details: 20 µM, 3 h
Experimental: In order to determine the degree of DNA damage induced by the treatments, DNA double-strand breaks were visualized by γH2AX immunostaining. For this, 1 × 10^5 cells/well were seeded onto coverslips in 24-well plates. […] Then, cells were fixed with 4% formaldehyde (Molar Chemicals, Halásztelek, Hungary), permeabilized with 0.3% Triton-X-100 (Calbiochem, Merck Millipore, Darmstadt, Germany) and were blocked using 5% bovine serum albumin (BSA) (Sigma-Aldrich, St. Louis, MO, USA). Then, the samples were incubated with anti-γH2AX antibody (Thermo Fisher Scientific, Waltham, MA, USA) in 1:300 dilution followed by Alexa 488 fluorophore-conjugated goat anti-mouse secondary antibody (Abcam, Cambridge, UK) in 1:600 dilution. The fluorescence intensity of the stained samples was detected by an Olympus FV10i confocal microscope.

E. faecalis ATCC 29212 = assay: MIC determination; assay type: cell-based, Enterococcus faecalis; details: Gram-positive E. faecalis ATCC 29212, Mueller Hinton Broth
Experimental: (§1) Klebsiella pneumoniae (ATCC 49619), Escherichia coli (ATCC 25922), Staphylococcus aureus (ATCC 25928) and Enterococcus faecalis (ATCC 29212) strains were used as Gram-negative and Gram-positive bacterial cultures. The stock solutions of the tested compounds (dissolved in 90% (v/v) DMSO/H2O at 10 mM concentration) were diluted in 100 μL of Mueller Hinton Broth, and then two-fold serial dilutions were performed. As a starting point, 100 μM concentration of the compounds was used. Then, 10^−4 dilution of an overnight bacterial culture in 100 μL of medium was added to each well, with the exception of the medium control wells. Minimum inhibitory concentration (MIC) values of compounds were determined according to our previous work.

MCF-7 KCR = assay: MTT cytotoxicity assay; assay type: cell-based, human; details: for effect on cell viability (in words): up to 20 µM, 24 h
Experimental: (§2) To test the biological effects of the Cu(II) complexes and the ligands on human cancer cells, DU-145 prostate, A549 lung, and MCF-7 breast adenocarcinoma cells, as well as the multidrug-resistant MCF-7 KCR breast cancer cells were utilized. All the cell lines were maintained in RPMI-1640 media (Biosera, Nuaille, France) complemented with 10% fetal bovine serum (FBS), 2 mM L-glutamine, 0.01% streptomycin and 0.005% penicillin, (Biosera, Nuaille, France) and were cultured under standard conditions in a 37 °C incubator at 5% CO2 and 95% humidity. The cell lines were originally obtained from ATCC.
(§3) The effect of the complexes and of their ligands alone on the viability (on the metabolic activity) of human cancer cells was assessed by MTT assay. The tested compounds were dissolved in 90% (v/v) DMSO/H2O at 10 mM concentration. Equimolar solutions of the ligand CuCl2 salt were used for the cytotoxicity assays. The metal salts without ligands were also tested. For this, 1 × 10^4 cells/well were seeded into 96-well plates and left to grow overnight. On the following day, cells were exposed to increasing concentrations of each compound (0; 2.5; 5; 10; 15; 20 µM). After a 24 h incubation, cells were washed with PBS buffer and then incubated with 0.5 mg/mL MTT (Sigma-Aldrich, St Louis, Missouri, MO, USA) for 1 h at 37 °C. The formazan crystals were solubilized in DMSO (Molar Chemicals, Halásztelek, Hungary), and the absorbance of samples was determined at 570 nm using a Synergy HTX plate reader (BioTek, Winooski, Vermont, VT, USA). Absorption corresponding to the untreated control samples was considered as 100%.

A549 = assay: MTT cytotoxicity assay; assay type: cell-based, human; details: for IC50: 24 h incubation time; for effect on cell viability (in words): up to 20 µM, 24 h
Experimental: as §2, §3

DU-145 = assay: MTT cytotoxicity assay; assay type: cell-based, human; details: DU-145, MTT; for IC50: 24 h incubation time; for effect on cell viability (in words): up to 20 µM, 24 h
Experimental: as §2, §3

MCF-7 = assay: MTT cytotoxicity assay; assay type: cell-based, human; details: MCF-7, MTT; for IC50: 24 h incubation time; for effect on cell viability (in words): up to 20 µM, 24 h
Experimental: as §2, §3

S. aureus ATCC 25928 = assay: MIC determination; assay type: cell-based, Staphylococcus aureus; details: Gram-positive S. aureus ATCC 25928, Mueller Hinton Broth
Experimental: as §1

[2] = system: HCT-116 colon cancer cell line; parameters: method as in doi:10.1039/D0NJ01070G, PMID 34453218, PMID 33951554; details: cited from earlier work
[3] = direct redox reaction of the Cu(II) complexes with GSH (UV–vis, anaerobic); assay type: physicochemical; details: Cu(II) complex (25 µM) of the named ligand with GSH (1.25 mM), pH 7.4, anaerobic, 30% (v/v) DMSO/H2O, 25.0 °C
Experimental: The redox reaction of the Cu(II) complexes with GSH and ascorbic acid was studied at 25.0 ± 0.1 °C, at pH 7.40 (10 mM HEPES with 0.1 M KCl) on an Agilent Cary 8454 diode array spectrophotometer using a special, tightly closed tandem cuvette (Hellma Tandem Cell, 238-QS). The complex and the reducing agent were separated until the reaction was triggered. Both isolated pockets of the tandem cuvette were completely deoxygenated by bubbling argon for 10 min before mixing the reactants. Spectra were recorded before and then immediately after the mixing, and changes were followed till no further absorbance change was observed. The stock solutions of the reducing agents and the complexes were freshly prepared every day.
During the calculations, the absorbance (A)−time (t) curves were fitted and analyzed at the λmax of the complex. (A0 − Afinal) × e ^(−a×t) + Afinal equation was used where A0, Afinal and a parameters were refined and accepted at the minimal value of the weighted sum of squared residuals (difference between the measured and calculated absorbance values) at the given wavelength. Then observed rate constants (kobs) of the redox reaction were obtained from the data points of the simulated absorbance–time curves as the slope of the ln(A/A0) versus t plots.

[4] = assay type: physicochemical; details: for logβ [CuLH−1] / logβ [CuL]+: Cu(II) complex of the named ligand, 30% (v/v) DMSO/H2O, T = 25.0 °C, I = 0.1 M (KCl); for pCu5.0: calculated at pH 5.0, cCu(II) = 20 µM; for pCu5.0 / pCu6.0 / pCu7.4: cligand = 20 µM; for pCu6.0: estimated at pH 6.0, cCu(II) = 20 µM; for pCu7.4: estimated at pH 7.4, cCu(II) = 20 µM
Experimental: (§4) An Orion 710A pH-meter equipped with a Metrohm combined electrode (type 6.0234.100) and a Metrohm 665 Dosimat burette were used for the UV–vis titrations at 25.0 ± 0.1 °C. Ionic strength of 0.10 M (KCl) was used to keep the activity coefficients constant. The titrations were performed with carbonate-free KOH solution of known concentration (0.10 M) with 30% (v/v) DMSO content. […] The average water ionization constant (pKw) is 14.54 ± 0.05 in the 30% (v/v) DMSO/H2O mixture. Argon was always passed over the solutions during the titrations. An Agilent Cary 8454 diode array spectrophotometer was used to record the UV–vis spectra at an interval of 200–800 nm. The path length was 2 cm. Spectrophotometric titrations were performed using a 0.1 M KOH titrant solution with 30% (v/v) DMSO on samples with 30% (v/v) DMSO containing HCl, KCl and the ligand at 20 μM concentration in the pH range 2.0–12.5 in the absence or in the presence of 1 or 0.5 equiv. Cu(II) ions. Proton dissociation constants (Ka) of the TSC ligands, the overall stability constants (β) of the Cu(II) complexes and the UV–vis spectra of the individual species were calculated by the computer program PSEQUAD [41] as was done in our previous works.

physchem = assay type: physicochemical
Experimental: as §4

[5] = cited from earlier work; for logβ [CuLH−1] / logβ [CuL]+: 30% (v/v) DMSO/H2O, T = 25.0 °C, I = 0.1 M (KCl); for pCu7.4: pH 7.4, cCu(II) = 20 µM, cligand = 20 µM
[6] = cited from earlier work
[7] = DPPH free radical scavenging assay; details: for % Scavenging Effect: DPPH:compound = 1:1 ratio after 30 min, ethanol; for IC50: in ethanol, T = 25 °C, cDPPH = 50 µM, ccompound = 5−50 µM
Experimental: The DPPH (Sigma-Aldrich) free radical scavenging capacity was studied at 25.0 ± 0.1 °C on an Agilent Cary 3500 spectrophotometer with tightly closed tandem cuvette according to our approach with some modifications. The stock solution of DPPH (100 µM) was prepared in ethanol, and 0.5 mL of this solution was added to one pocket of the cuvette and 0.5 mL of the tested compound in different concentrations in ethanol was added to another. The final concentration of the studied compounds was in the range 5–50 µM, where for DPPH concentration, it was always 50 µM. A standard compound Trolox (Sigma-Aldrich) was used as a positive control. The percentage of the antioxidant activity (AA), IC50 values (the concentration of compound at which it reduced 50% of DPPH) and Trolox equivalent antioxidant capacity (TEAC) were calculated.

[8] = Cu(II) complex (25 µM) with GSH (1.25 mM), pH 7.4, anaerobic; cited from earlier work

## [Cl][Cu][Cl] [CuCl2, reference compound]
[1]
  DNA double-strand breaks (γH2AX) vs untreated control cells: None of these treatments caused a higher degree of DNA damage
E. faecalis ATCC 29212
  MIC: >100 µM
MCF-7 KCR; 24 h incubation time
  IC50: > 20 µM
MCF-7 KCR
  effect on cell viability (in words): No toxic effect
A549
  IC50: > 20 µM
  effect on cell viability (in words): No toxic effect
DU-145
  IC50: > 20 µM
  effect on cell viability (in words): No toxic effect
MCF-7
  IC50: > 20 µM
  effect on cell viability (in words): No toxic effect
S. aureus ATCC 25928
  MIC: >100 µM

## CN(C)C(=S)NN=Cc1cc2c(cc1O)CCC1C2CCC2(C)C(=O)CCC12 (stereo not drawn) [Me2-estrone-TSC, reference compound]
[2]
  IC50: 21 µM
[3]
  kobs: 0.05 ^4 min^−1
[4]
  pKa [CuL]+: 3.92 ^4
  logβ [CuLH−1]: 9.44 ± 0.07 ^4
  logβ [CuL]+: 13.36 ± 0.08 ^4
  pCu5.0: 8.0
  pCu6.0: 9.7
  pCu7.4: 12.5 ^4
physchem
  pKa: 9.02 ± 0.03 ^4

## CNC(=S)NN=Cc1cc2c(cc1O)CCC1C2CCC2(C)C(=O)CCC12 (stereo not drawn) [Me-estrone-TSC]
[2]
  IC50: 25 µM
[5]
  logβ [CuLH−1]: 9.66 ^3
  logβ [CuL]+: 13.64 ^3
  pCu7.4: 11.9 ^3
[3]
  kobs: 0.05 ^4 min^−1
[4]
  pCu5.0: 7.7
  pCu6.0: 9.2

## NC(=O)N/N=C/c1ccccc1O [SSC]
[6]; salicylaldehyde SC
  pKa: 9.30

## NC(=S)N/N=C/c1ccccc1O [STSC, salicylaldehyde TSC, reference compound]
[6]; salicylaldehyde TSC
  pKa: 8.84
[7]; DPPH assay in ethanol, 25 °C
  TEAC (Trolox equivalent antioxidant capacity): 0.6
[7]; 25 °C
  % Scavenging Effect: 23.4%
[7]
  IC50: 19 µM

## C[C@]12CC[C@@H]3c4cc(C=NNC(N)=O)c(O)cc4CC[C@H]3[C@@H]1CCC2O (stereo partly drawn) [estradiol-SC, 2-[(3,17 Dihydroxy-estra-1,3,5(10)-triene-2-yl)methylene]Hydrazine-1-carboxamide]
[3]
  kobs: fast reaction
E. faecalis ATCC 29212; Enterococcus faecalis, ATCC29212
  MIC: > 100 µM
MCF-7 KCR; Homo sapiens, MCF7, 24 h incubation time
  IC50: > 20 µM
MCF-7 KCR
  effect on cell viability (in words): only slightly toxic
A549; Homo sapiens
  IC50: > 20 µM
A549
  effect on cell viability (in words): only slightly toxic
DU-145
  effect on cell viability (in words): neither the estradiol-SC nor the Cu(II)-estradiol-SC complex exhibit any harmful effect
DU-145; Homo sapiens
  IC50: > 20 µM
MCF-7; Homo sapiens, MCF7
  IC50: > 20 µM
MCF-7
  effect on cell viability (in words): neither the estradiol-SC nor the Cu(II)-estradiol-SC complex exhibit any harmful effect
other
  melting point: 238 °C
[7]; 25 °C
  % Scavenging Effect: 6.5%
[7]
  IC50: > 50 µM
[4]
  pKa [CuL]+: 6.48
  logβ [CuLH−1]: 5.16 ± 0.03
  logβ [CuL]+: 11.63 ± 0.03
  pCu5.0: 5.7
  pCu6.0: 6.3
  pCu7.4: 7.8
S. aureus ATCC 25928
  MIC: 50 µM (≈ 17.9 µg/mL)
S. aureus ATCC 25928; Staphylococcus aureus, ATCC25928
  MIC: 50 µM (≈ 17.9 µg/mL)
physchem
  pKa: 10.02 ± 0.03

## CC12CCC3c4cc(C=NNC(N)=O)c(O)cc4CCC3C1CCC2=O (stereo not drawn) [estrone-SC]
[5]
  logβ [CuLH−1]: 4.82 ^1
  logβ [CuL]+: 11.26 ^1
  pCu7.4: 7.5 ^1
[4]
  pCu5.0: 5.8
  pCu6.0: 6.3
[8]
  kobs: fast reaction ^1
